For the assay, the target named is T1, K-Ras G12C (Homo sapiens, UniProt P01116, G12C).
T1 construct: This protein contained 188 amino acids in total, including an N-terminal 6-Histidine tag; made in house; host or cells: E. coli BL21
The assay can be described thus: CAF assay (% CAF; method in Example 7, not in this part). The note with it: 10 μM, 1 h; Table 4. Format: binding.

For `C=CC(=O)N1CCN(c2nc(=O)n3c4c(c(-c5ccc(F)cc5F)c(Cl)cc24)SC[C@@H]3CCCN2C[C@@H]3C[C@H]2CO3)[C@@H](C)C1` [Example 342, (3S)-3-(3-((1S,4S)-2-oxa-5-azabicyclo[2.2.1]heptan-5-yl)propyl)-7-((S)-4-acryloyl-2-methylpiperazin-1-yl)-9-chloro-10-(2,4-difluorophenyl)-2H-[1,4]thiazino[2,3,4-ij]quinazolin-5(3H)-one], the “% CAF @ 10 μM, 1 h” value stood at 94.7%. Take `C=CC(=O)N1CCN(c2nc(=O)n3c4c(c(-c5c(F)cc(F)cc5F)c(Cl)cc24)SC[C@@H]3CC2CCN(C)CC2)[C@@H](C)C1` [Example 343, (S)-7-((S)-4-acryloyl-2-methylpiperazin-1-yl)-9-chloro-3-((1-methylpiperidin-4-yl)methyl)-10-(2,4,6-trifluorophenyl)-2H-[1,4]thiazino[2,3,4-ij]quinazolin-5(3H)-one]: the “% CAF @ 10 μM, 1 h” value is on record as 96.7%. Consider `C=CC(=O)N1CCN(c2nc(=O)n3c4c(c(-c5c(F)cc(F)cc5F)c(Cl)cc24)SC[C@H]3CC2CCN(C)CC2)[C@@H](C)C1` [Example 344, (R)-7-((S)-4-acryloyl-2-methylpiperazin-1-yl)-9-chloro-3-((1-methylpiperidin-4-yl)methyl)-10-(2,4,6-trifluorophenyl)-2H-[1,4]thiazino[2,3,4-ij]quinazolin-5(3H)-one], for which the “% CAF @ 10 μM, 1 h” value was 94.8%.

Turning to `C=CC(=O)N1CCN(c2nc(=O)n3c4c(c(-c5ccc(F)cc5F)c(Cl)cc24)SC[C@H]3CC2CCN(C)CC2)[C@@H](C)C1` [Example 345, (3R)-7-((S)-4-acryloyl-2-methylpiperazin-1-yl)-9-chloro-10-(2,4-difluorophenyl)-3-((1-methylpiperidin-4-yl)methyl)-2H-[1,4]thiazino[2,3,4-ij]quinazolin-5(3H)-one], the “% CAF @ 10 μM, 1 h” value was determined as 82.4%. For `C=CC(=O)N1CCN(c2nc(=O)n3c4c(c(-c5ccc(F)cc5F)c(Cl)cc24)SC[C@H]3CN2CCN(CC)CC2)[C@@H](C)C1` [Example 346, (3R)-7-((S)-4-acryloyl-2-methylpiperazin-1-yl)-9-chloro-10-(2,4-difluorophenyl)-3-((4-ethylpiperazin-1-yl)methyl)-2H-[1,4]thiazino[2,3,4-ij]quinazolin-5(3H)-one], the “% CAF @ 10 μM, 1 h” value was found to be 79.3%.

Take `C=CC(=O)N1CCN(c2nc(=O)n3c4c(c(-c5ccc(F)cc5F)c(Cl)cc24)SC[C@H]3CN2CCN(CC(F)F)CC2)[C@@H](C)C1` [Example 347, (3R)-7-((S)-4-acryloyl-2-methylpiperazin-1-yl)-9-chloro-3-((4-(2,2-difluoroethyl)piperazin-1-yl)methyl)-10-(2,4-difluorophenyl)-2H-[1,4]thiazino[2,3,4-ij]quinazolin-5(3H)-one]: the “% CAF @ 10 μM, 1 h” value amounted to 82.5%.

Regarding `C=CC(=O)N1CCN(c2nc(=O)n3c4c(c(-c5ccc(F)cc5F)c(Cl)cc24)SC[C@H]3CC2CCN(CC(F)F)CC2)[C@@H](C)C1` [Example 348, (3R)-7-((S)-4-acryloyl-2-methylpiperazin-1-yl)-9-chloro-3-((1-(2,2-difluoroethyl)piperidin-4-yl)methyl)-10-(2,4-difluorophenyl)-2H-[1,4]thiazino[2,3,4-ij]quinazolin-5(3H)-one], the “% CAF @ 10 μM, 1 h” value is 92%. Consider `C=CC(=O)N1CCN(c2nc(=O)n3c4c(c(-c5ccc(F)cc5)c(Cl)cc24)SC[C@H]3CC2CCN(CC(F)F)CC2)[C@@H](C)C1` [Example 349, (R)-7-((S)-4-acryloyl-2-methylpiperazin-1-yl)-9-chloro-3-((1-(2,2-difluoroethyl)piperidin-4-yl)methyl)-10-(4-fluorophenyl)-2H-[1,4]thiazino[2,3,4-ij]quinazolin-5(3H)-one], for which the “% CAF @ 10 μM, 1 h” value is 94%.

The values are drawn from patent US20230107642A1 (Erasca, Inc., priority 2020, published 2023).
